Experimental data from patent US20230159527A1, “COMPOUNDS AS BCL-2 INHIBITORS” (Fochon Pharmaceuticals, Ltd., priority 2020, published 2023).

Test system: Toledo cells
Test: Cell proliferation assay, Toledo cells (MTS, 72 h)
Format: cell-based
Details: Homo sapiens, Toledo cells, MTS, read-out: Toledo IC50
Method in brief: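 Toledo cells (30000/well, RPMI-1640 with 10% FBS) were preincubated for 4 h. They were then exposed to nine compound concentrations from 10000 to 1.5 nM for 72 h at 37 °C, 5% CO2. MTS was added for 2 h and absorbance read at 490 nm to give IC50.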

Compound | IC50 [nM]
CC(C)c1ccccc1[C@@H]1CCCN1C1CC2(CCN(c3ccc(C(=O)NS(=O)(=O)c4cc5c(c([N+](=O)[O-])c4)N[C@@H]([C@H]4CC[C@](C)(O)CC4)CO5)c(Oc4cc5c(F)c[nH]c5nc4Cl)c3)CC2)C1 (single isomer, unassigned) [Example D-84, 2-((6-chloro-3-fluoro-1H-pyrrolo [2,3-b]pyridin-5-yl)oxy)-N-(((S)-3-((1r,4S)-4-hydroxy-4-methylcyclohexyl)-5-nitro-3,4-dihydro-2H-benzo[b][1,4]oxazin-7-yl)sulfonyl)-4-(2-((R or S)-2-(2-isopropylphenyl)pyrrolidin-1-yl)-7-azaspiro[3.5]nonan-7-yl)benzamide] | 1
CC(C)c1ccccc1[C@@H]1CSCCN1C1CC2(CCN(c3ccc(C(=O)NS(=O)(=O)c4cc5c(c([N+](=O)[O-])c4)N[C@@H]([C@H]4CC[C@](C)(O)CC4)CO5)c(Oc4cnc5[nH]cc(F)c5c4)c3)CC2)C1 (single isomer, unassigned) [Example D-78, 2-((3-fluoro-1H-pyrrolo[2,3-b]pyridin-5-yl)oxy)-N-(((S)-3-((1r,4S)-4-hydroxy-4-methylcyclohexyl)-5-nitro-3,4-dihydro-2H-benzo[b] [1,4]oxazin-7-yl)sulfonyl)-4-(2-((R or S)-3-(2-isopropylphenyl)thiomorpholino)-7-azaspiro[3.5]nonan-7-yl)benzamide] | 1
COCCOc1nc2[nH]ccc2cc1Oc1cc(N2CCC3(CC2)CN([C@H]2CCC[C@H]2c2ccccc2C(C)C)C3)ccc1C(=O)NS(=O)(=O)c1ccc(NC[C@H]2CC[C@](C)(O)CC2)c([N+](=O)[O-])c1 (racemic) [Example D-76, N-((4-((((1r,4r)-4-hydroxy-4-methylcyclohexyl)methyl)amino)-3-nitrophenyl)sulfonyl)-4-(2-((1S,2S and 1R,2R)-2-(2-isopropylphenyl)cyclopentyl)-2,7-diazaspiro[3.5]nonan-7-yl)-2-((6-(2-methoxyethoxy)-1H-pyrrolo[2,3-b]pyridin-5-yl)oxy)benzamide] | 1
CC(C)c1ccccc1[C@@H]1CCCN1C1CC2(CCN(c3ccc(C(=O)NS(=O)(=O)c4cc5c(c([N+](=O)[O-])c4)N[C@@H]([C@H]4CC[C@](C)(O)CC4)CO5)c(Oc4cc5cc[nH]c5nc4O[C@H]4CCOC4)c3)CC2)C1 (single isomer, unassigned) [Example D-74, N-(((S)-3-((1r,4S)-4-hydroxy-4-methylcyclohexyl)-5-nitro-3,4-dihydro-2H-benzo[b][1,4]oxazin-7-yl)sulfonyl)-4-(2-((R or S)-2-(2-isopropylphenyl)pyrrolidin-1-yl)-7-azaspiro[3.5]nonan-7-yl)-2-((6-(((S)-tetrahydrofuran-3-yl)oxy)-1H-pyrrolo[2,3-b]pyridin-5-yl)oxy)benzamide] | 1
CC(C)c1ccccc1[C@@H]1CCCN1C1CC2(CCN(c3ccc(C(=O)NS(=O)(=O)c4cc5c(c([N+](=O)[O-])c4)N[C@@H]([C@H]4CC[C@](C)(O)CC4)CO5)c(Oc4cc5cc[nH]c5nc4OC[C@@H]4CCCN4)c3)CC2)C1 (single isomer, unassigned) [Example D-218, N-(((S)-3-((1r,4S)-4-hydroxy-4-methylcyclohexyl)-5-nitro-3,4-dihydro-2H-benzo[b][1,4]oxazin-7-yl)sulfonyl)-4-(2-((R or S)-2-(2-isopropylphenyl)pyrrolidin-1-yl)-7-azaspiro[3.5]nonan-7-yl)-2-((6-(((S)-pyrrolidin-2-yl)methoxy)-1H-pyrrolo[2,3-b]pyridin-5-yl)oxy)benzamide] | 1
CC(C)c1ccccc1[C@@H]1CCCN1C1CC2(CCN(c3ccc(C(=O)NS(=O)(=O)c4cc5c(c([N+](=O)[O-])c4)N[C@@H]([C@H]4CC[C@H](O)CC4)CO5)c(Oc4cnc5[nH]cc(F)c5c4)c3)CC2)C1 (single isomer, unassigned) [Example D-41, 2-((3-fluoro-1H-pyrrolo[2,3-b]pyridin-5-yl)oxy)-N-(((S)-3-((1r,4S)-4-hydroxycyclohexyl)-5-nitro-3,4-dihydro-2H-benzo[b][1,4]oxazin-7-yl)sulfonyl)-4-(2-((R or S)-2-(2-isopropylphenyl)pyrrolidin-1-yl)-7-azaspiro[3.5]nonan-7-yl)benzamide] | 1
CC(C)c1ccccc1C1CCCN1C1CC2(CCN(c3ccc(C(=O)NS(=O)(=O)c4cc5c(c([N+](=O)[O-])c4)N[C@@H](C4CCC(F)(F)CC4)CO5)c(Oc4cnc5[nH]cc(F)c5c4)c3)CC2)C1 (single isomer, unassigned) [Example D-47, N-(((S)-3-(4,4-difluorocyclohexyl)-5-nitro-3,4-dihydro-2H-benzo [b][1,4]oxazin-7-yl)sulfonyl)-2-((3-fluoro-1H-pyrrolo[2,3-b]pyridin-5-yl)oxy)-4-(2-((R or S)-2-(2-isopropylphenyl)pyrrolidin-1-yl)-7-azaspiro[3.5]nonan-7-yl)benzamide] | 1
CC(C)c1ccccc1[C@@H]1CCCN1C1CC2(CCN(c3ccc(C(=O)NS(=O)(=O)c4cc5c(c([N+](=O)[O-])c4)N[C@H]([C@H]4CC[C@@H](O)CC4)CO5)c(Oc4cnc5[nH]cc(F)c5c4)c3)CC2)C1 (single isomer, unassigned) [Example D-43, 2-((3-fluoro-1H-pyrrolo[2,3-b]pyridin-5-yl)oxy)-N-(R)-3-((1s,4S)-4-hydroxycyclohexyl)-5-nitro-3,4-dihydro-2H-benzo[b][1,4]oxazin-7-yl)sulfonyl)-4-(2-((R or S)-2-(2-isopropylphenyl)pyrrolidin-1-yl)-7-azaspiro[3.5]nonan-7-yl)benzamide] | 1
CC(C)c1ccccc1[C@@H]1COCCN1C1CC2(CCN(c3ccc(C(=O)NS(=O)(=O)c4cc5c(c([N+](=O)[O-])c4)N[C@@H]([C@H]4CC[C@](C)(O)CC4)CO5)c(Oc4cnc5[nH]cc(F)c5c4)c3)CC2)C1 (single isomer, unassigned) [Example D-1, 2-((3-fluoro-1H-pyrrolo[2,3-b]pyridin-5-yl)oxy)-N-(((S)-3-((1r,4S)-4-hydroxy-4-methylcyclohexyl)-5-nitro-3,4-dihydro-2H-benzo[b] [1,4]oxazin-7-yl)sulfonyl)-4-(2-((R or S)-3-(2-isopropylphenyl)morpholino)-7-azaspiro[3.5]nonan-7-yl) benzamide] | 1
CC(C)c1ccccc1[C@@H]1CCC[C@@H]1N1CC2(CCN(c3ccc(C(=O)NS(=O)(=O)c4cc5c(c([N+](=O)[O-])c4)N[C@@H]([C@H]4CC[C@](C)(O)CC4)CO5)c(Oc4cc5cc[nH]c5nc4OC4COC4)c3)CC2)C1 (single isomer, unassigned) [Example D-108, N-(((S)-3-((1r,4S)-4-hydroxy-4-methylcyclohexyl)-5-nitro-3,4-dihydro-2H-benzo[b][1,4]oxazin-7-yl)sulfonyl)-4-(2-((1S,2S or 1R,2R)-2-(2-isopropylphenyl)cyclopentyl)-2,7-diazaspiro[3.5]nonan-7-yl)-2-((6-(oxetan-3-yloxy)-1H-pyrrolo[2,3-b]pyridin-5-yl)oxy) benzamide] | 1
CC(C)Oc1nc2[nH]ccc2cc1Oc1cc(N2CCC3(CC2)CC(N2CCC[C@H]2c2ccccc2C(C)C)C3)ccc1C(=O)NS(=O)(=O)c1cc2c(c([N+](=O)[O-])c1)N[C@@H]([C@H]1CC[C@](C)(O)CC1)CO2 (single isomer, unassigned) [Example D-66, N-(((S)-3-((1r,4S)-4-hydroxy-4-methylcyclohexyl)-5-nitro-3,4-dihydro-2H-benzo[b][1,4]oxazin-7-yl)sulfonyl)-2-((6-isopropoxy-1H-pyrrolo[2,3-b]pyridin-5-yl)oxy)-4-(2-((R or S)-2-(2-isopropylphenyl)pyrrolidin-1-yl)-7-azaspiro[3.5]nonan-7-yl)benzamide] | 1
CC(C)c1ccccc1[C@@H]1CCCN1C1CC2(CCN(c3ccc(C(=O)NS(=O)(=O)c4cc5c(c([N+](=O)[O-])c4)N[C@@H]([C@H]4CC[C@](C)(O)CC4)CO5)c(Oc4cc5cc[nH]c5nc4OC[C@@H]4COCCN4C(=O)OC(C)(C)C)c3)CC2)C1 (single isomer, unassigned) [Example D-215, tert-butyl (S)-3-(((5-(2-((((S)-3-((1r,4S)-4-hydroxy-4-methylcyclohexyl)-5-nitro-3,4-dihydro-2H-benzo[b][1,4]oxazin-7-yl)sulfonyl)carbamoyl)-5-(2-((R or S)-2-(2-isopropylphenyl)pyrrolidin-1-yl)-7-azaspiro[3.5]nonan-7-yl)phenoxy)-1H-pyrrolo[2,3-b]pyridin-6-yl)oxy)methyl) morpholine-4-carboxylate] | 1
CC(C)c1ccccc1[C@@H]1CCCN1C1CC2(CCN(c3ccc(C(=O)NS(=O)(=O)c4cc5c(c([N+](=O)[O-])c4)N[C@@H]([C@H]4CC[C@](C)(O)CC4)CO5)c(Oc4cc5cc[nH]c5nc4OC[C@@H](C)O)c3)CC2)C1 (single isomer, unassigned) [Example D-69, N-(((S)-3-((1r,4S)-4-hydroxy-4-methylcyclohexyl)-5-nitro-3,4-dihydro-2H-benzo[b][1,4]oxazin-7-yl)sulfonyl)-2-((6-((7)-2-hydroxypropoxy)-1H-pyrrolo[2,3-b]pyridin-5-yl)oxy)-4-(2-((R or S)-2-(2-isopropylphenyl)pyrrolidin-1-yl)-7-azaspiro[3.5]nonan-7-yl)benzamide] | 1

Same assay, conditions: Toledo cells, MTS, read-out: Toledo IC50

Compound | IC50 [nM]
CC(C)c1ccccc1[C@@H]1CCC[C@@H]1N1CC2(CCN(c3ccc(C(=O)NS(=O)(=O)c4cc5c(c([N+](=O)[O-])c4)N[C@@H]([C@H]4CC[C@](C)(O)CC4)CO5)c(Oc4cnc5[nH]cc(F)c5c4)c3)CC2)C1 (single isomer, unassigned) [Example D-28b, 2-((3-fluoro-1H-pyrrolo[2,3-b]pyridin-5-yl)oxy)-N-(((S)-3-((1r,4S)-4-hydroxy-4-methylcyclohexyl)-5-nitro-3,4-dihydro-2H-benzo[b] [1,4]oxazin-7-yl)sulfonyl)-4-(2-((1S,2S or 1R,2R)-2-(2-isopropylphenyl)cyclopentyl)-2,7-diazaspiro[3.5]nonan-7-yl)benzamide] | 1
